Experimental data reported in patent US5854010A, “Bioassay for detecting 2,3,7,8-tetrachlorodibenzo-para-dioxin and TCDD-like compounds and novel recombinant cell line useful therefor” (priority 1997, dated 1998).
Where two headings read alike, the source gives them in different places.

What was measured:
Assay type in all cases: cell-based
[1] = test system: mouse hepatoma Hepa1c1c7 cells (wild type); assay: TCDD-inducible luciferase activity, transient transfection with pGudLuc1.0 (lacks DREs)
Procedure: (§1) In general, the expression vectors pGudLuc1.0 and pGudLuc1.1 were prepared as follows. A 1330-bp HindIII fragment or an 1810-bp HindIII fragment isolated from the plasmid, pMpap1.0 or pMpap1.1, respectively (see, El-Fouly et al., supra), was subcloned into the HindIII site immediately upstream of the luciferase gene in the plasmid pGL2-basic (purchased from Promega).
More specifically, the following cells were obtained from the source indicated. Wild-type and AhR-defective (BPRc1 and TAO, respectively) mouse hepatoma (Hepa1c1c7) cells (Hepa1), derived from a C57B1 mouse liver tumor, were obtained from J. P. Whitlock, Jr. (Stanford University). These cells were grown as previously described by Miller et al. in "Biochemical and Genetic Analysis of Variant Mouse Hepatoma Cells Defective in the Induction of Benzo(a)pyrene Metabolizing Enzyme Activity", J. Biol. Chem., Vol. 258, pp. 3523-3527 (1983). […]
(§2) Using the stabilized luciferase assay system (purchased from Promega), luciferase activity in an aliquot of the cleared lysed cell supernatant (20 μl) was determined by mixing it with 100 µl of luciferase assay reagent (purchased from Promega) and measuring the resulting luminescence in a Turner Luminometer or Dynatech ML3000 microplate luminometer (light output was integrated over 1 minute after a delay time of 30 seconds).
(§3) Using a microplate adaptation of the method reported by Bradford in "A Rapid Sensitive Method for the Quantitation of Microgram Quantities of Protein Utilizing the Principle of Protein-Dye Binding", Anal. Biochem., […], pp. 248-254 (1976), luciferase activity was standardized to the protein concentration of the supernatant (with bovine serum albumin as the protein standard). Because of instrument differences in luminescence measurement and data output, luciferase activity was determined as relative light units (RLU) per microgram of protein, which was converted to milligram of protein as reported in the Tables below.

[2] = test system: guinea pig intestinal adenocarcinoma GPC16 cells; assay: TCDD-inducible luciferase activity, transient transfection with pGudLuc1.1
Procedure: as §1
(§4) More specifically, the following cells were obtained from the source indicated. Wild-type and AhR-defective (BPRc1 and TAO, respectively) mouse hepatoma (Hepa1c1c7) cells (Hepa1), derived from a C57B1 mouse liver tumor, were obtained from J. P. Whitlock, Jr. (Stanford University). These cells were grown as previously described by Miller et al. in "Biochemical and Genetic Analysis of Variant Mouse Hepatoma Cells Defective in the Induction of Benzo(a)pyrene Metabolizing Enzyme Activity", J. Biol. Chem., Vol. 258, pp. 3523-3527 (1983). Additionally, mouse hepatoma (MLE/BV) cells, derived from a spontaneously immortalized C3H/HeN mouse liver cell, were obtained from B. V. Madhukar (Indiana University School of Medicine, Indianapolis, Ind.) and were grown as described for the Hepa1 cells. Rat hepatoma (H4IIe) cells, guinea pig intestinal adenocarcinoma (GPC16) cells, hamster lung (AHL) cells, human hepatoma (HepG2) cells, human breast tumor (MCF7) cells, and human intestinal epithelial (LS180) cells were obtained from the American Type Culture Collection (Rockville, Md.). Until transfection, all of the cells were maintained according to their respective cell-type-specific culture protocols.
(§5) Transfection was accomplished as follows. Using polybrene as previously described by Helferich et al. in "Photooxidized Products of Tryptophan Can Act as Dioxin Agonists", Mol. Pharmacol., Vol. 40, pp. 674-678 (1991), plates of cells (approximately 80% confluent) were transiently transfected with the desired plasmid (15 μg). Then, the transfected cells were allowed to grow for 48 hours, followed by the addition of either DMSO (1 μl/ml) or TCDD (1 nM) solubilized in DMSO, which was followed by incubation for 24 hours. Next, the plates were transferred onto ice, and the media were removed, after which the plates were rinsed twice with cold PBS. Then, 200 μl of luciferase lysis buffer (purchased from Promega) was used to lyse the cells. The lysed cell samples were collected and transferred into a microfuge tube. Cell debris was pelleted by centrifugation, and the supernatants were collected. The supernatant samples were assayed for TCDD-inducible luciferase activity in the following manner.
as §2, §3

hamster lung AHL cells = assay: as above
Procedure: as §1, §4, §5, §2, §3

[3] = test system: human breast tumor MCF7 cells; assay: as above
Procedure: as §1, §4, §5, §2, §3

[4] = test system: human hepatoma HepG2 cells; assay: as above
Procedure: as §1, §4, §5, §2, §3

[5] = test system: human intestinal epithelial LS180 cells; assay: as above
Procedure: as §1, §4, §5, §2, §3

[6] = test system: mouse hepatoma Hepa1c1c7 cells (wild type); assay: as above
Procedure: as §1, §4, §5, §2, §3

rat hepatoma H4IIE cells = assay: as above
Procedure: as §1, §4, §5, §2, §3

Clc1cc2c(cc1Cl)Oc1cc(Cl)c(Cl)cc1O2 [TCDD, 2,3,7,8-tetrachlorodibenzo-para-dioxin]
Luciferase activity, TCDD in DMSO ([1]; Luc1.0, TCDD 1 nM, 24 h, mean of triplicate transfections): 0.1 RLU/mg protein
fold induction at 0.001 µM ([1]; Mus musculus, Hepa-1c1c7, Luc1.0, TCDD 1 nM vs DMSO): 1
Induction of luciferase activity ([1]; pGudLuc1.0, TCDD 1 nM): failed to induce luciferase activity
fold induction ([2]; Cavia porcellus, Luc1.1, TCDD 1 nM vs DMSO): 7.6
Luciferase activity, TCDD in DMSO ([2]; Luc1.1, TCDD 1 nM, 24 h): 28.8 RLU/mg protein
Luciferase activity, TCDD in DMSO (hamster lung AHL cells; Luc1.1, TCDD 1 nM, 24 h): 174 RLU/mg protein
fold induction (hamster lung AHL cells; Mesocricetus auratus, Luc1.1, TCDD 1 nM vs DMSO): 5.8
fold induction ([3]; Homo sapiens, MCF7, Luc1.1, TCDD 1 nM vs DMSO): 33.4
Luciferase activity, TCDD in DMSO ([3]; Luc1.1, TCDD 1 nM, 24 h): 63.5 RLU/mg protein
fold induction ([4]; Homo sapiens, HepG2, Luc1.1, TCDD 1 nM vs DMSO): 66.3
Luciferase activity, TCDD in DMSO ([4]; Luc1.1, TCDD 1 nM, 24 h): 690 RLU/mg protein
fold induction ([5]; Homo sapiens, LS180, Luc1.1, TCDD 1 nM vs DMSO): 18.6
Luciferase activity, TCDD in DMSO ([5]; Luc1.1, TCDD 1 nM, 24 h): 26.0 RLU/mg protein
fold induction ([6]; Luc1.1, TCDD 1 nM vs DMSO, 0.001 µM): 60 Fold
Luciferase activity, TCDD in DMSO ([6]; Luc1.1, TCDD 1 nM, 24 h, mean of triplicate transfections): 12.1 RLU/mg protein
fold induction ([6]; Mus musculus, Hepa-1c1c7, Luc1.1, TCDD 1 nM vs DMSO, read-out: Fold induction): 60.5
Luciferase activity, TCDD in DMSO (rat hepatoma H4IIE cells; Luc1.1, TCDD 1 nM, 24 h): 34.2 RLU/mg protein
fold induction (rat hepatoma H4IIE cells; Rattus norvegicus, H4IIE, Luc1.1, TCDD 1 nM vs DMSO): 28.5
